Measurements from patent US6399745B1, “Use of leptin antagonists for treating insulin resistance in type II diabetes” (Aventis Pharma Deutschland GmbH, priority 1996, dated 2002).

Test system: isolated rat adipocytes
Assay: Glucose transport (2-deoxyglucose uptake) in isolated rat adipocytes after primary culture with leptin, basal and insulin-stimulated
Type: cell-based
Conditions: for Glucose Transport, stimulation factor for insulin (stimulated/basal): Insulin concentration: 5 nM
Experimental: Adipocytes were prepared from the epididymal fat tissue of male Wistar rats (140-160 g, Hoechst AG breeding station, Kastengrund) by means of digesting with collagenase (Rodbell, 1964, J. Biol. Chem. 239, 375-380), washed twice with KRH (25 mM Hepes free acid, 25 mM Hepes sodium salt, 80 mM NaCl, 1 mM MgSO4, 2 mM CaCl2, 6 mM KCl, 1 mM sodium pyruvate, 0.5% BSA) and once with DMEM (Dulbecco's minimal essential medium), supplemented with 5.5 mM glucose, 20 mM Hepes (pH 7.4), 2% fetal calf serum, 1% BSA, 50 U of penicillin/ml, […], by means of flotation (800×g, 1 min, in small plastic tubes), and finally diluted to a volume of 20 ml of DMEM/g wet weight of the fat tissue (cell titer: approximately 2.5×10^5 cells/ml).
The adipocytes were incubated, at 37° C. for 15-18 h under an atmosphere of 5% CO2 and with gentle shaking, in supplemented (see above) DMEM in the presence of 100 nM phenylisopropyladenosine (4 ml of DMEM to 1 ml of cells, cell titer approximately 5×10^4 cell/ml, in 50 ml sterile polypropylene: tubes) and in the presence or absence of leptin. The adipocytes were subsequently washed three times with cold KRH and adjusted to a cell titer of approximately 3×10^5 cells/ml by adding 0.7 ml of glucose-free KRH to the cell layer which remained after the complete removal of the last washing solution. In order to determine the capacity of the adipocytes to be stimulated by insulin, and their sensitivity to insulin, following the primary culture, the washed adipocytes were incubated at 37° C. for 20 min in the absence or presence of human insulin (0.02-50 nM final concentration), and glucose transport or lipogenesis was then measured.
Glucose transport was measured as the specific uptake of the non-metabolizable glucose analog 2-deoxyglucose (Muller and Wied, 1993, Diabetes 42, 1852-1867). 50 μl of the adipocyte suspension in KRH, which suspension had or had not been preincubated with insulin (see above), were incubated, at 25° C. for 5 min, with 50 μl of KRH which was supplemented with 2-deoxy-D-[2,6-^3H]glucose (0.5 μCi, 0.2 mM). The incubation mixtures were transferred to thin soft-plastic centrifuge tubes, each of which already contained 200 μl of dinonyl phthalate oil, and immediately centrifuged (2,000×g, 30 sec). Using special shears, the tubes were severed within the oil layer (in the vicinity of the upper edge) and the upper halves of the tubes, together with the cell layers which had in each case been floated onto the oil layer, were transferred to scintillation vials. After 10 ml of scintillation fluid (water-based) had been added, the radioactivity associated with the cells was measured. In order to correct for 2-deoxyglucose which had become enclosed in the cell interstices, or had diffused into the cells, in a non-specific manner, the radioactivity of cells which had been preincubated with cytochalasin B (20 μM) was subtracted from the total cell-associated radioactivity of each individual incubation mixture (Gliemann et al., 1972, Biochim. Biophys. Acta 286, 1-9).
Isolated rat adipocytes were incubated for 15 h in primary culture in the presence or absence of increasing concentrations of leptin. […] The stimulation factor for insulin was calculated as the ratio between insulin-stimulated and basal activities. Each value represents the mean from two independent adipocyte cultures with activity being determined two or three times in each case.
The cells were then washed and tested for the stimulation of glucose transport by differing concentrations of insulin. Glucose transport activity is given as a “dpm value” of the 2deoxy-[^3H]glucose which is specifically associated with the cells. Each value represents the mean from two independent adipocyte cultures with the activity being determined four times in each case.

Substance: Leptin
- leptin concentration at which effects can already be detected in vitro (insulin dose/effect curves at different leptin concentrations): 0.5 to 1 nM
- glucose transport, uptake of 3H-labeled 2-deoxyglucose (leptin 0.05 nM 16.5 h, insulin 0.02 nM): 735 dpm
- glucose transport, uptake of 3H-labeled 2-deoxyglucose (leptin 0.05 nM 16.5 h, insulin 0.05 nM): 1025 dpm
- glucose transport, uptake of 3H-labeled 2-deoxyglucose (leptin 0.05 nM 16.5 h, insulin 0.1 nM): 1674 dpm
- glucose transport, uptake of 3H-labeled 2-deoxyglucose (leptin 0.05 nM 16.5 h, insulin 0.2 nM): 3320 dpm
- glucose transport, uptake of 3H-labeled 2-deoxyglucose (leptin 0.05 nM 16.5 h, insulin 0.5 nM): 5138 dpm
- glucose transport, uptake of 3H-labeled 2-deoxyglucose (leptin 0.05 nM 16.5 h, insulin 1 nM): 6834 dpm
- glucose transport, uptake of 3H-labeled 2-deoxyglucose (leptin 0.05 nM 16.5 h, insulin 2 nM): 7942 dpm
- glucose transport, uptake of 3H-labeled 2-deoxyglucose (leptin 0.05 nM 16.5 h, insulin 5 nM): 8794 dpm
- glucose transport, uptake of 3H-labeled 2-deoxyglucose (leptin 0.05 nM 16.5 h, insulin 10 nM): 9134 dpm
- glucose transport, uptake of 3H-labeled 2-deoxyglucose (leptin 0.05 nM 16.5 h, insulin 50 nM): 9189 dpm
- glucose transport, uptake of 3H-labeled 2-deoxyglucose (leptin 0.05 nM 16.5 h, no insulin (basal)): 654 dpm
- Glucose Transport, stimulation factor for insulin (stimulated/basal) (leptin 0.3 nM 15 h): 13.4
- Glucose Transport, stimulation factor for insulin (stimulated/basal) (leptin 1 nM 15 h): 11.75
- glucose transport, uptake of 3H-labeled 2-deoxyglucose (leptin 1 nM 16.5 h, insulin 0.02 nM): 678 dpm
- glucose transport, uptake of 3H-labeled 2-deoxyglucose (leptin 1 nM 16.5 h, insulin 0.05 nM): 824 dpm
- glucose transport, uptake of 3H-labeled 2-deoxyglucose (leptin 1 nM 16.5 h, insulin 0.1 nM): 1189 dpm
- glucose transport, uptake of 3H-labeled 2-deoxyglucose (leptin 1 nM 16.5 h, insulin 0.2 nM): 1587 dpm
- glucose transport, uptake of 3H-labeled 2-deoxyglucose (leptin 1 nM 16.5 h, insulin 0.5 nM): 2180 dpm
- glucose transport, uptake of 3H-labeled 2-deoxyglucose (leptin 1 nM 16.5 h, insulin 1 nM): 3904 dpm
- glucose transport, uptake of 3H-labeled 2-deoxyglucose (leptin 1 nM 16.5 h, insulin 2 nM): 5510 dpm
- glucose transport, uptake of 3H-labeled 2-deoxyglucose (leptin 1 nM 16.5 h, insulin 5 nM): 6985 dpm
- glucose transport, uptake of 3H-labeled 2-deoxyglucose (leptin 1 nM 16.5 h, insulin 10 nM): 8241 dpm
- glucose transport, uptake of 3H-labeled 2-deoxyglucose (leptin 1 nM 16.5 h, insulin 50 nM): 8932 dpm
- glucose transport, uptake of 3H-labeled 2-deoxyglucose (leptin 1 nM 16.5 h, no insulin (basal)): 634 dpm
- glucose transport, uptake of 3H-labeled 2-deoxyglucose (leptin 2 nM 16.5 h, insulin 0.02 nM): 704 dpm
- glucose transport, uptake of 3H-labeled 2-deoxyglucose (leptin 2 nM 16.5 h, insulin 0.05 nM): 755 dpm
- glucose transport, uptake of 3H-labeled 2-deoxyglucose (leptin 2 nM 16.5 h, insulin 0.1 nM): 860 dpm
- glucose transport, uptake of 3H-labeled 2-deoxyglucose (leptin 2 nM 16.5 h, insulin 0.2 nM): 1006 dpm
- glucose transport, uptake of 3H-labeled 2-deoxyglucose (leptin 2 nM 16.5 h, insulin 0.5 nM): 1377 dpm
- glucose transport, uptake of 3H-labeled 2-deoxyglucose (leptin 2 nM 16.5 h, insulin 1 nM): 1916 dpm
- glucose transport, uptake of 3H-labeled 2-deoxyglucose (leptin 2 nM 16.5 h, insulin 2 nM): 2680 dpm
- glucose transport, uptake of 3H-labeled 2-deoxyglucose (leptin 2 nM 16.5 h, insulin 5 nM): 4323 dpm
- glucose transport, uptake of 3H-labeled 2-deoxyglucose (leptin 2 nM 16.5 h, insulin 10 nM): 6107 dpm
- glucose transport, uptake of 3H-labeled 2-deoxyglucose (leptin 2 nM 16.5 h, insulin 50 nM): 7032 dpm
- glucose transport, uptake of 3H-labeled 2-deoxyglucose (leptin 2 nM 16.5 h, no insulin (basal)): 688 dpm
- Glucose Transport, stimulation factor for insulin (stimulated/basal) (leptin 3 nM 15 h): 7.4
- glucose transport, uptake of 3H-labeled 2-deoxyglucose (leptin 5 nM 16.5 h, insulin 0.02 nM): 734 dpm
- glucose transport, uptake of 3H-labeled 2-deoxyglucose (leptin 5 nM 16.5 h, insulin 0.05 nM): 798 dpm
- glucose transport, uptake of 3H-labeled 2-deoxyglucose (leptin 5 nM 16.5 h, insulin 0.1 nM): 883 dpm
- glucose transport, uptake of 3H-labeled 2-deoxyglucose (leptin 5 nM 16.5 h, insulin 0.2 nM): 923 dpm
- glucose transport, uptake of 3H-labeled 2-deoxyglucose (leptin 5 nM 16.5 h, insulin 0.5 nM): 1167 dpm
- glucose transport, uptake of 3H-labeled 2-deoxyglucose (leptin 5 nM 16.5 h, insulin 1 nM): 1583 dpm
- glucose transport, uptake of 3H-labeled 2-deoxyglucose (leptin 5 nM 16.5 h, insulin 2 nM): 2140 dpm
- glucose transport, uptake of 3H-labeled 2-deoxyglucose (leptin 5 nM 16.5 h, insulin 5 nM): 2950 dpm
- glucose transport, uptake of 3H-labeled 2-deoxyglucose (leptin 5 nM 16.5 h, insulin 10 nM): 3682 dpm
